Like-named read-outs stand apart in the source and are kept apart here.
Legend:
[1] = tested on: rat gastric fundus strips; assay: Contraction of rat gastric fundus strips; assay type: cell-based; conditions: for relative potency of inhibition of contraction amplitude: 5HT (10 μM) present, FIG. 8
Description: Male and female Sprague-Dawley rats weighing 200-300 g were anesthetized with 40 mg/kg sodium pentobarbital given intraperitoneally. After deep anesthesia was obtained, exsanguination was accomplished by severing both the jugular vein and common carotid artery. The abdomen was opened at the midline and the stomach was removed, and transferred to the ice cold oxygenated Krebs' solution at pH 7.4. The stomach was dissected out and the pink pyloric end cut away from the grey fundal end. The fundal end was split open so as to form a sheet, the contents were washed away. Longitudinal muscle strips (3×20 mm) of the gastric fundus were prepared as described by Vane (Vane, Br. J. Pharmac. Chemother., 12:344, 1957). The strips were mounted under a 1-g resting tension between two parallel platinum electrodes placed inside the organ baths containing 20-ml of the gassed Krebs' solution. The Krebs' solution also contained atropine (1 μM) and guanethidine (4 μM) to block cholinergic and adrenergic involvement in response to field stimulation of intramural nerves and 5-hydroxytryptamine (5-HT, 5-10 μM) to raise the tone of the smooth muscle. In some experiments, indomethacin (10 μM) was present in Krebs' to avoid the influence of endogenous prostaglandins. Tissues were allowed to equilibrate for 1 h with changes of Krebs' solution every 10 minutes.
After the equilibration period, relaxations of smooth muscle were elicited by VIP, VIPGC, VIPGC-NO, isoproterenol and GSNO. In some experiments, the strips were incubated for 10 minutes with N^G -monomethyl L-arginine (L-NMMA).

rabbit sphincter of Oddi = assay: Contractility of isolated rabbit sphincter of Oddi; assay type: cell-based; conditions: for effect on ACh-induced contractions: ACh-pretreated (10 μM), cumulative addition, peptides 1 nM-1 μM, GSNO 0.1-100 μM; for inhibition at 100 µM: Oryctolagus cuniculus
Description: The preparation of rabbit sphincters of Oddi (SO) was similar to that described previously (Slivka et al. 1994) with minor modifications. Briefly, the rabbit abdomen was opened at the midline. The gall bladder, bile duct, gastric antrum and contiguous duodenum were isolated, removed en bloc, and transferred to ice cold Krebs' solution at pH 7.4. The duodenum was opened along the antimesenteric border as was the adjacent pylorus and gastric antrum. From the luminal surface, the ampulla of Vater was identified and the SO isolated on ice under an illuminated magnifier by sharp dissection.
The SO were mounted on pairs of the hooks and suspended in organ chambers containing the Krebs' solution at 37° C. Resting tension was adjusted to 1 g, and circular contractions were monitored by the FT03C force transducer and recorded on the model 7 Grass polygraphs. SO were allowed to equilibrate as described above. […] Some experiments were performed by using ACh to intensify SO contractility, and then the effects of VIP, VIPGC-NO, VIPGC and GSNO on SO contractility were tested. After each experimental observation was complete, the SO were washed at least three times with fresh Krebs' solution.

rabbit aortic rings = assay: Relaxation of precontracted rabbit aortic rings (isometric tension); assay type: cell-based; conditions: for relaxation of aortic rings, cumulative additions: intact rings precontracted with phenylephrine (100 μM), 10 nM to 1 μM, FIG. 2
Description: Briefly, male New Zealand rabbits weighing 1.5 to 2.0 Kg were anesthetized by an intravenous injection of sodium pentobarbital (40 mg/kg) into a marginal ear vein. The descending thoracic aorta was quickly removed and placed in ice-cold Krebs' solution containing the following composition (mM): NaCl, 118; KCl, 4.8; MgSO4, 1.2; CaCl2, 2.5; KH2 PO4, 1.2; NaHCO3, 25; glucose, 11; Na2 EDTA, 0.03. The thoracic aorta was first trimmed free of most adipose and connective tissue. It was then cut into transverse rings by placing it at a right angle across five parallel razor blades mounted at 2.5 mm intervals in a plastic holder and then rolling a large polypropylene pipette tip over it (simultaneously producing four rings of equal size). The aortic rings and other tissues (see the following) used in this study, were mounted on pairs of L-shaped hooks and suspended in Krebs' solution (gassed with 95% 02 /5% CO2, 37° C.) in 20 ml organ chambers unless stated otherwise.
Results are expressed in percentage of relaxation of phenylephrine-induced tone.

[2] = tested on: cGMP and cAMP content of rabbit aortic rings; assay: Cyclic GMP and cyclic AMP content of rabbit aortic rings (enzyme-immunoassay); assay type: cell-based; conditions: 1 μM, FIG. 9; for cGMP content of aortic rings: at maximum relaxation
Description: (§3) Frozen tissues were homogenized in ice-cold 6% trichloroacetic acid to give approximately a 10% (w/v) homogenate. The homogenates were centrifuged at 2,000 g for 15 minutes at 4° C. The supernatant fractions were decanted off the pellets and washed four times with 5 volumes of water-saturated ethyl ether, and the aqueous extracts remaining were saved for assay for cyclic GMP and AMP using enzyme-immunoassay kits (Amersham Life Science Inc., Arlington Heights, IL).

[3] = tested on: cGMP and cAMP content of guinea pig tracheal rings; assay: Cyclic GMP and cyclic AMP content of guinea pig tracheal rings (enzyme-immunoassay); assay type: cell-based; conditions: 100 nM, n=4, FIG. 10; for cGMP content of tracheal rings: at plateau of relaxation
Description: as §3

corpora cavernosa = assay: Erectile response (intracavernosal pressure) in vivo in the anesthetized dog
Description: (§1) Male mongrel dogs (20-30 kg) were used as the animal model. Under pentobarbital anesthesia (30 mg/kg) and mechanical respiration, a 20 gauge anglocatheter was placed into the carotid artery for measurement of systemic blood pressure. A ventral incision was made in the penis and the corpora cavernosa were exposed.
(§2) A 19 gauge minicatheter was inserted deep into the cavernosal tissue, on each corpus, for pressure measurement and delivery of either VIP, VIP-Gly-Cys-NO, VIP-Gly-Cys-NH2 or papaverine. […] Drugs were delivered intracavernosally in solution, 0.5 ml volume, at variable syringe concentrations, starting at 10^-7 M and progressively increasing the dose up to, in some instances, 10^-4 M. In most experiments, at the end, papaverine 80 mM was administered intracavernosally in order to compare this response to those elicited by VIP or its analogs. At all times systemic blood pressure was monitored, for comparison with intracavernosal pressure.

guinea-pig trachea [4] = conditions: for time for relaxation to reach a plateau: 100 nM; for effect of pretreatment with 100 nM propanol on the induced relaxation: cumulative additions, dose range 10-320 nM; for IC50: read-out: IC50 of relaxation of tracheal rings, precontracted with 10 μM methacholine, FIG. 4
Description: (§4) Male Hartley guinea pigs (300-400 g) were anesthetized by use of intraperitoneal injection of pentobarbital sodium (40 mg/kg) to achieve a deep plane of anesthesia. The tracheas were dissected out, transferred to cold Krebs' solution. Tracheas were then dissected free from surrounding fat and connective tissue and cut transversely between the segments of cartilage, so as to give tracheal rings about 2 mm thick. The rings were suspended between stainless-steel hooks in the 20 ml organ baths containing the above-mentioned Krebs' solution at 37° C. The hooks were connected to the FT03C transducers. Rings were equilibrated at a basal tension of 1 g as described above and then primed twice with methacholine (100 nM). The rings were rinsed throughout after each priming exposure. Tracheal rings were not used if they could not sustain at least 1 g tension when exposed to 100 nM methacholine. The surface of organ baths was treated with 1N HCl to minimize contamination and allowed to dry in room air before Krebs' solution were added. For relaxation studies, methacholine (100 nM) was used to contract the tracheal rings and results are expressed in percentage of relaxation of methacholine-induced tone.

[5] = dog, in vivo
Description: as §1, §2

guinea-pig trachea [6] = assay: tissue or blood; conditions: Cavia porcellus, read-out: IC50 of relaxation of tracheal rings
Description: as §4

With NCCc1c[nH]c2ccc(O)cc12 [5HT, 5-hydroxytryptamine] the “effect on contractions of the strips” value ([1]; 10 μM) was “significant increase in contractions”.
With CC(=O)OCC[N+](C)(C)C [ACh, acetylcholine] the “acceleration in phasic contractions” value (rabbit sphincter of Oddi; 10 μM, n=12) was 69±15% and the “elevations in tonic pressure” value (rabbit sphincter of Oddi; 10 μM, n=12) was 73±12%.
For N[C@@H](CCC(=O)N[C@@H](CSN=O)C(=O)NCC(=O)O)C(=O)O [GSNO, S-nitrosoglutathione], the “relaxation of aortic rings, cumulative additions” value (rabbit aortic rings) was “also observed in the rings exposed to GSNO”, the “effect on ACh-induced contractions” value (rabbit sphincter of Oddi) was “gradually attenuated” and the inhibition at 100 µM (rabbit sphincter of Oddi; ACh 10 μM, read-out: inhibition of ACh-enhanced phasic contractions) was 89 ± 5%. The inhibition at 100 µM (rabbit sphincter of Oddi; read-out: inhibition of basic contractility of sphincter of Oddi) was 91 ± 9%, the “relative potency of inhibition of contraction amplitude” value [1] was “two least potent inhibitors” and the “cGMP content of aortic rings” value [2] was “significant increase in cGMP concentration”. The “cAMP content of aortic rings” value [2] was “no significant increase in cAMP content”.
In the case of CC[C@H](C)[C@H](NC(=O)[C@H](CO)NC(=O)[C@H](CC(N)=O)NC(=O)[C@H](CC(C)C)NC(=O)[C@H](Cc1ccc(O)cc1)NC(=O)[C@H](CCCCN)NC(=O)[C@H](CCCCN)NC(=O)[C@@H](NC(=O)[C@H](C)NC(=O)[C@H](CCSC)NC(=O)[C@H](CCC(N)=O)NC(=O)[C@H](CCCCN)NC(=O)[C@H](CCCNC(=N)N)NC(=O)[C@H](CC(C)C)NC(=O)[C@H](CCCNC(=N)N)NC(=O)[C@@H](NC(=O)[C@H](Cc1ccc(O)cc1)NC(=O)[C@H](CC(N)=O)NC(=O)[C@H](CC(=O)O)NC(=O)[C@@H](NC(=O)[C@H](Cc1ccccc1)NC(=O)[C@@H](NC(=O)[C@H](C)NC(=O)[C@H](CC(=O)O)NC(=O)[C@H](CO)NC(=O)[C@@H](N)Cc1c[nH]cn1)C(C)C)[C@@H](C)O)[C@@H](C)O)C(C)C)C(=O)N[C@@H](CC(C)C)C(=O)N[C@@H](CC(N)=O)C(N)=O [VIP, vasoactive intestinal peptide], the “relaxation of aortic rings, cumulative additions” value (rabbit aortic rings) is reported as “certain degree of relaxation only at 1 μM”, the “relaxation of phenylephrine-precontracted aortic rings” value (rabbit aortic rings; single doses (1 μM), FIG. 3) is reported as 19±4% and the persistence of effect (rabbit sphincter of Oddi) is reported as “at least 90 minutes”. For the same compound, the “time to observed effect after addition to organ chambers” value (rabbit sphincter of Oddi) was ≤ 2 min, the “inhibition of contraction frequency” value (rabbit sphincter of Oddi; 1 μM) was 94±16% and the “inhibition of ACh-enhanced phasic contractions” value (rabbit sphincter of Oddi; 1 μM, ACh 10 μM) was 93±7%. For the same compound, the “effect on ACh-induced contractions” value (rabbit sphincter of Oddi) was “gradually attenuated”, the “inhibition of basic contraction frequency and amplitude” value (rabbit sphincter of Oddi; cumulative addition 1 nM-1 μM, FIG. 5, 6) was “inhibited both basic contraction frequency and amplitude dose-dependently” and the “irregular and incomplete contractions noted during incubation” value (rabbit sphincter of Oddi; single dose 0.1 μM, 30 minutes, n=5, FIG. 7) was 40±11. The “cGMP content of aortic rings” value [2] was “less than that of VIPGC-NO or GSNO”, the “cAMP content of aortic rings” value [2] was “no significant increase in cAMP content” and the “cGMP content of tracheal rings” value [3] was “significant increase in the content of cGMP”. For the same compound, the “cAMP content of tracheal rings” value [3] was “no concomitant increases in the cAMP level”, the erectile response (corpora cavernosa; 10^-5 M, FIG. 16) was “partial and short erectile response” and the erectile response (corpora cavernosa; intracavernosal 10^-5 M, FIG. 13) was “capable of inducing sustained penile erection”. The “time for relaxation to reach a plateau” value (guinea-pig trachea [4]) was “about 20 minutes” and the “effect of pretreatment with 100 nM propanol on the induced relaxation” value (guinea-pig trachea [4]) was “did not antagonize”.
With CC[C@H](C)[C@H](NC(=O)[C@H](CO)NC(=O)[C@H](CC(N)=O)NC(=O)[C@H](CC(C)C)NC(=O)[C@H](Cc1ccc(O)cc1)NC(=O)[C@H](CCCCN)NC(=O)[C@H](CCCCN)NC(=O)[C@@H](NC(=O)[C@H](C)NC(=O)[C@H](CCSC)NC(=O)[C@H](CCC(N)=O)NC(=O)[C@H](CCCCN)NC(=O)[C@H](CCCNC(=N)N)NC(=O)[C@H](CC(C)C)NC(=O)[C@H](CCCNC(=N)N)NC(=O)[C@@H](NC(=O)[C@H](Cc1ccc(O)cc1)NC(=O)[C@H](CC(N)=O)NC(=O)[C@H](CC(=O)O)NC(=O)[C@@H](NC(=O)[C@H](Cc1ccccc1)NC(=O)[C@@H](NC(=O)[C@H](C)NC(=O)[C@H](CC(=O)O)NC(=O)[C@H](CO)NC(=O)[C@@H](N)Cc1c[nH]cn1)C(C)C)[C@@H](C)O)[C@@H](C)O)C(C)C)C(=O)N[C@@H](CC(C)C)C(=O)N[C@@H](CC(N)=O)C(=O)NCC(=O)N[C@@H](CS)C(N)=O [VIPGC, VIP-Gly-Cys-NH2] the “diastolic blood pressure (DBP)” value [5] was 120 mm Hg and the IC50 (guinea-pig trachea [4]) was 59 ± 9 nM.
For CC[C@H](C)[C@H](NC(=O)[C@H](CO)NC(=O)[C@H](CC(N)=O)NC(=O)[C@H](CC(C)C)NC(=O)[C@H](Cc1ccc(O)cc1)NC(=O)[C@H](CCCCN)NC(=O)[C@H](CCCCN)NC(=O)[C@@H](NC(=O)[C@H](C)NC(=O)[C@H](CCSC)NC(=O)[C@H](CCC(N)=O)NC(=O)[C@H](CCCCN)NC(=O)[C@H](CCCNC(=N)N)NC(=O)[C@H](CC(C)C)NC(=O)[C@H](CCCNC(=N)N)NC(=O)[C@@H](NC(=O)[C@H](Cc1ccc(O)cc1)NC(=O)[C@H](CC(N)=O)NC(=O)[C@H](CC(=O)O)NC(=O)[C@@H](NC(=O)[C@H](Cc1ccccc1)NC(=O)[C@@H](NC(=O)[C@H](C)NC(=O)[C@H](CC(=O)O)NC(=O)[C@H](CO)NC(=O)[C@@H](N)Cc1c[nH]cn1)C(C)C)[C@@H](C)O)[C@@H](C)O)C(C)C)C(=O)N[C@@H](CC(C)C)C(=O)N[C@@H](CC(N)=O)C(=O)NCC(=O)N[C@@H](CSN=O)C(N)=O [VIPGC-NO, VIP-Gly-Cys-NO], the “diastolic blood pressure (DBP)” value [5] was 120 mm Hg and the IC50 (guinea-pig trachea [4]) was 32 ± 6 nM.
With CC(C)NCC(O)c1ccc(O)c(O)c1 (stereo not shown) [isoproterenol] the “relative potency of inhibition of contraction amplitude” value [1] was “two least potent inhibitors”, the “cGMP content of tracheal rings” value [3] was “no appreciable changes in the cGMP content” and the “cAMP content of tracheal rings” value [3] was “significant increase in the cAMP level”. For the same compound, the “time for relaxation to reach a plateau” value (guinea-pig trachea [4]) was “about 5 minutes”, the “effect of pretreatment with 100 nM propanol on the induced relaxation” value (guinea-pig trachea [4]) was “blocked” and the IC50 (guinea-pig trachea [6]) was 47 ± 3 nM.
